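In this assay, cells in 96-well plates receive the compound at five concentrations for 48 hours. Endpoints are linearly interpolated between the surrounding concentrations. GI50 marks 50% less growth. TGI denotes the concentration required for complete inhibition of growth.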
Assays:
Experiment in all cases: NCI-60 cell line screen, 48 h
[1] = test system: A549 NSCLC
[2] = test system: MDA-MB-435
[3] = test system: MOLT-4 leukemia
[4] = test system: CCRF-CEM leukemia
[5] = test system: UACC-257 melanoma
[6] = test system: SF-539 CNS
[7] = test system: BT-549 breast
[8] = test system: UO-31 renal
[9] = test system: OVCAR-5 ovarian
[10] = test system: TK-10 renal

**Q.** `Cn1cc(-c2cc3c(N4CCN(c5ncc([C@@](C)(N)c6ccc(F)cc6)cn5)CC4)ncnn3c2)cn1` was tested. Which GI50 [1] did it give?
**A.** 5.61 µM

**Q.** And the TGI [1]?
**A.** > 100 µM

**Q.** What about the GI50 [2] of the same compound?
**A.** 3.56 µM

**Q.** And the TGI [2]?
**A.** > 100 µM

**Q.** And the GI50 [3]?
**A.** 2.52 µM

**Q.** And the TGI [3]?
**A.** > 100 µM

**Q.** And the GI50 [4]?
**A.** 2.87 µM

**Q.** What about the TGI [4] of the same compound?
**A.** > 100 µM

**Q.** What about the GI50 [5] of the same compound?
**A.** 5 µM

**Q.** What about the TGI [5] of the same compound?
**A.** > 100 µM

**Q.** And the GI50 [6]?
**A.** 1.6 µM

**Q.** What about the TGI [6] of the same compound?
**A.** > 100 µM

**Q.** What about the GI50 [7] of the same compound?
**A.** 5.15 µM

**Q.** What about the TGI [7] of the same compound?
**A.** > 100 µM

**Q.** And the GI50 [8]?
**A.** 1.84 µM

**Q.** What about the TGI [8] of the same compound?
**A.** > 100 µM

**Q.** How did the GI50 [9] turn out when `CN1CCN(c2ccc(Nc3ncc(Cl)c(NC[C@@H]4CCCO4)n3)cc2)CC1` was run?
**A.** 1.18 µM

**Q.** And the TGI [9]?
**A.** > 100 µM

**Q.** What about the GI50 [1] of the same compound?
**A.** 1.05 µM

**Q.** What about the TGI [1] of the same compound?
**A.** 5.5 µM

**Q.** What about the GI50 [10] of the same compound?
**A.** 1.75 µM

**Q.** And the TGI [10]?
**A.** 8.39 µM

**Q.** What about the GI50 [2] of the same compound?
**A.** 1.64 µM

**Q.** And the TGI [2]?
**A.** 15.3 µM

**Q.** What about the GI50 [4] of the same compound?
**A.** 0.466 µM

**Q.** What about the TGI [4] of the same compound?
**A.** 9.04 µM

**Q.** What about the GI50 [5] of the same compound?
**A.** 6.46 µM

**Q.** What about the TGI [5] of the same compound?
**A.** 32.6 µM

**Q.** And the GI50 [6]?
**A.** 1.52 µM

**Q.** What about the TGI [6] of the same compound?
**A.** 4.22 µM

**Q.** What about the GI50 [7] of the same compound?
**A.** 2.24 µM

**Q.** And the TGI [7]?
**A.** 6.94 µM

**Q.** With `N#CC(C(=O)CCC(=O)Nc1ccc(Cl)c(Cl)c1)c1ccccc1` (configuration not stated) as the compound, how does the TGI [9] read?
**A.** > 100 µM

**Q.** And the TGI [1]?
**A.** > 100 µM

**Q.** And the TGI [3]?
**A.** > 100 µM

**Q.** And the TGI [5]?
**A.** > 100 µM

**Q.** And the TGI [6]?
**A.** > 100 µM

**Q.** And the TGI [8]?
**A.** > 100 µM

**Q.** Which results are given for `O=C(Nc1nc(=S)[nH][nH]1)C(=O)C(C(=O)c1ccc2ccccc2c1)C1OC(=O)c2ccccc21` (configuration not stated)?
**A.** TGI [9]: > 100 µM; TGI [1]: > 100 µM; TGI [10]: 80.3 µM; TGI [3]: 21.1 µM; TGI [4]: 80.7 µM; TGI [5]: 76.5 µM; TGI [6]: 25.2 µM; TGI [8]: 30.5 µM

**Q.** What does the source list for `Cc1cc2c(cc1C)[n+](=O)c(C(=O)c1ccccc1)c(C(F)F)n2[O-]`?
**A.** GI50 [9]: 36.4 µM; TGI [9]: > 100 µM; GI50 [1]: 4.9 µM; TGI [1]: 27.4 µM; GI50 [10]: 38 µM; TGI [10]: > 100 µM; GI50 [2]: 26.3 µM; TGI [2]: > 100 µM; GI50 [3]: 8.02 µM; TGI [3]: 43.1 µM; GI50 [4]: 5.12 µM; TGI [4]: 29.6 µM; GI50 [6]: 18.4 µM; TGI [6]: 72.5 µM; GI50 [7]: 14.2 µM; TGI [7]: 65.3 µM; GI50 [8]: 19.2 µM; TGI [8]: > 100 µM

**Q.** `O=C(NC1C=CCC2C(=O)N(c3ccccc3)C(=O)C12)OCc1ccccc1` (configuration not stated) was tested. Which TGI [9] did it give?
**A.** > 100 µM

**Q.** What about the TGI [1] of the same compound?
**A.** > 100 µM

**Q.** What about the TGI [10] of the same compound?
**A.** > 100 µM

**Q.** And the TGI [3]?
**A.** > 100 µM

**Q.** And the TGI [4]?
**A.** > 100 µM

**Q.** What about the TGI [5] of the same compound?
**A.** > 100 µM

**Q.** What about the TGI [6] of the same compound?
**A.** > 100 µM

**Q.** What about the TGI [8] of the same compound?
**A.** > 100 µM

**Q.** Which results are given for `CN1C(=O)C(=O)N2c3ccc(Cl)cc3C3(c4ccccc4)N=CC12O3` (configuration not stated)?
**A.** TGI [9]: 20 µM; TGI [1]: 23.1 µM; TGI [10]: 18.1 µM; TGI [3]: 7.56 µM; TGI [4]: 17.5 µM; TGI [5]: 19 µM; TGI [6]: 14.6 µM; TGI [8]: 18.1 µM

**Q.** Which results are given for `Cc1nc(-c2nc(C)c(C(=O)NNC(=O)C[n+]3ccccc3)s2)sc1C(=O)NNC(=O)C[n+]1ccccc1`?
**A.** TGI [9]: > 100 µM; TGI [1]: > 100 µM; TGI [10]: > 100 µM; TGI [3]: > 100 µM; TGI [4]: > 100 µM; TGI [5]: > 100 µM; TGI [6]: > 100 µM; TGI [8]: 80.5 µM

**Q.** Which TGI [9] does the source give for `CC(=O)Nc1cc2ccc(=O)oc2cc1Cl` here?
**A.** > 100 µM

**Q.** What about the TGI [1] of the same compound?
**A.** > 100 µM

**Q.** And the TGI [2]?
**A.** > 100 µM

**Q.** What about the TGI [3] of the same compound?
**A.** > 100 µM

**Q.** And the TGI [4]?
**A.** > 100 µM

**Q.** What about the TGI [5] of the same compound?
**A.** > 100 µM

**Q.** And the TGI [6]?
**A.** > 100 µM

**Q.** And the TGI [7]?
**A.** > 100 µM

**Q.** And the TGI [8]?
**A.** > 100 µM
